Measurements: BindingDB's records for doi:10.7270/Q24748BK (Burnham Center For Chemical Genomics, 2010)

Biological target: T1, Tyrosine-protein phosphatase non-receptor type 22 (Homo sapiens, UniProt Q9Y2R2)
T1 sequence (Q9Y2R2 whole entry): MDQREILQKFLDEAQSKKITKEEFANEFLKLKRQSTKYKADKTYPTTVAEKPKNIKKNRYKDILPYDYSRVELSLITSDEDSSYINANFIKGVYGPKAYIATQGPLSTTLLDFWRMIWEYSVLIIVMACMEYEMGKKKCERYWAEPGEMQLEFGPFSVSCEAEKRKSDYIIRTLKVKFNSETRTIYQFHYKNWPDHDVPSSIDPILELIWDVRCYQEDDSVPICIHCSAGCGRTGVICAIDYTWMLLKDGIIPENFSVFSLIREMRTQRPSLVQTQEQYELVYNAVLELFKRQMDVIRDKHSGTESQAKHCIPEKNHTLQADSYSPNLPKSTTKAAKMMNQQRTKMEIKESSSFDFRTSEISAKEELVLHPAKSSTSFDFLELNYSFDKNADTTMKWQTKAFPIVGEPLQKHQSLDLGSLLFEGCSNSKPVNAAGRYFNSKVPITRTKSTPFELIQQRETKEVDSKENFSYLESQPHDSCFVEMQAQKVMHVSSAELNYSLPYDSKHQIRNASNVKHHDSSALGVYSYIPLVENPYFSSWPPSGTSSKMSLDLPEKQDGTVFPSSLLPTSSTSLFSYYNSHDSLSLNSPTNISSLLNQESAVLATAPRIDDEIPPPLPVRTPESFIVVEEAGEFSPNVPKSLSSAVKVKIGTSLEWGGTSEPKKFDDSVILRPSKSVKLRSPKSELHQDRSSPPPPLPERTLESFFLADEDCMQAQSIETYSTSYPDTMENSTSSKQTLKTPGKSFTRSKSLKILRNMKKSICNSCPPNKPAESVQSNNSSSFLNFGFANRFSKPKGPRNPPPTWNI
Test: LYP phosphatase inhibitor potency, dose response, biochemical, pCAP substrate, fluorescence intensity (AID 435027)

Row | SMILES | IC50 [µM]
1 | N=C(NN=Cc1ccc2c(c1)OCO2)Sc1cc(O)n(-c2ccc(C(=O)O)cc2)c1O [4-(3-{[[(2E)-2-(1,3-benzodioxol-5-ylmethylene)hydrazino](imino)methyl]thio}-2,5-dioxopyrrolidin-1-yl)benzoic acid] | 7.65
2 | Cc1ccc(NN=C2C(=O)N(CN3CCOCC3)c3ccccc32)cc1 [(3Z)-3-[(4-methylphenyl)hydrazinylidene]-1-(4-morpholinylmethyl)-2-indolone] | > 79.4
3 | O=C1C([N+](=O)[O-])=CC(Br)=CC1/C=N/n1cnnc1 (stereo not given) [MLS000714804] | > 79.4
4 | COC1=CC=CC(/C=N/NC(=O)c2cc3cc([N+](=O)[O-])ccc3s2)C1=O (stereo not given) [SMR000237814] | 15.7
5 | CCOC(=O)NC(=O)C(C=Nc1ccc(C)cc1)C(=O)NC(=O)OCC [ethyl 2-{[(ethoxycarbonyl)amino]carbonyl}-3-(4-toluidino)acryloylcarbamate] | > 79.4
